# Legend:
# SK-MEL-28 [1] = assay: cells; conditions: Homo sapiens, SK-MEL-28, 48 h
# Colo 205 = assay: NCI DTP 60 cell line screen, SRB
# M14 = assay: NCI DTP 60 cell line screen, SRB
# 786-0 = 786-0 (Renal Cancer), 48 h, SRB
# HT-29 = assay: NCI DTP 60 cell line screen, SRB
# OVCAR-8 = assay: NCI DTP 60 cell line screen, SRB
# MDA-MB-231/ATCC = assay: NCI DTP 60 cell line screen, SRB
# SK-MEL-2 = SK-MEL-2 (Melanoma), 48 h, SRB
# SK-MEL-28 [2] = conditions: SK-MEL-28 (Melanoma), 48 h, SRB
# MDA-MB-435 = assay: NCI DTP 60 cell line screen, SRB
# NCI-H460 = assay: cells; conditions: Homo sapiens, NCI-H460, 48 h
# EKVX = assay: cells; conditions: Homo sapiens, 48 h
# HOP-62 = HOP-62 (Non-Small Cell Lung Cancer), 48 h, SRB
# BT-549 = assay: NCI DTP 60 cell line screen, SRB
# SN12C = assay: cells; conditions: Homo sapiens, 48 h
# NCI-322M = assay: NCI DTP 60 cell line screen, SRB; conditions: 48 h
# A549/ATCC = A549/ATCC (Non-Small Cell Lung Cancer), 48 h, SRB
# NCI-H23 = NCI-H23 (Non-Small Cell Lung Cancer), 48 h, SRB
# UO-31 = assay: NCI DTP 60 cell line screen, SRB
# HCT-116 = assay: cells; conditions: Homo sapiens, HCT-116, 48 h
# CCRF-CEM = assay: NCI DTP 60 cell line screen, SRB; conditions: 48 h
# LOX IMVI = assay: cells; conditions: Homo sapiens, 48 h
# T-47D = assay: cells; conditions: Homo sapiens, T47D, 48 h
# MOLT-4 = assay: cells; conditions: Homo sapiens, MOLT-4, 48 h
# OVCAR-5 = assay: NCI DTP 60 cell line screen, SRB
compound,measurement,setting,value
"O=C1NC(=S)S/C1=C\C(Cl)=C\c1ccc([N+](=O)[O-])cc1 [Compound 2b, 5-[(Z,2Z)-2-Chloro-3-(4-nitrophenyl)-2-propenylidene]-2-thioxo-4-thiazolidinone]",GI50,SK-MEL-28 [1],5.87 µM
same,CC50,SK-MEL-28 [1]; read-out: LC50,25.9 µM
same,TGI,"Colo 205; Colo 205 (Colon Cancer), 48 h, SRB",17.4 µM
same,GI50,"Colo 205; Homo sapiens, COLO 205, 48 h",4.04 µM
same,CC50,"Colo 205; Homo sapiens, COLO 205, 48 h, read-out: LC50",> 50 µM
same,GI50,"M14; Homo sapiens, M14, 48 h",8.87 µM
same,CC50,"M14; Homo sapiens, M14, 48 h, read-out: LC50",> 50 µM
same,TGI,"M14; M14 (Melanoma), 48 h, SRB",32.2 µM
same,TGI,786-0,18.8 µM
same,TGI,"HT-29; HT-29 (Colon Cancer), 48 h, SRB",9.48 µM
same,GI50,"HT-29; Homo sapiens, HT-29, 48 h",1.48 µM
same,CC50,"HT-29; Homo sapiens, HT-29, 48 h, read-out: LC50",> 50 µM
same,GI50,"OVCAR-8; Homo sapiens, OVCAR-8, 48 h",5.08 µM
same,CC50,"OVCAR-8; Homo sapiens, OVCAR-8, 48 h, read-out: LC50",47.9 µM
same,TGI,"OVCAR-8; OVCAR-8 (Ovarian Cancer), 48 h, SRB",15.6 µM
same,GI50,"MDA-MB-231/ATCC; Homo sapiens, MDA-MB-231, 48 h",8.16 µM
same,CC50,"MDA-MB-231/ATCC; Homo sapiens, MDA-MB-231, 48 h, read-out: LC50",> 50 µM
same,TGI,"MDA-MB-231/ATCC; MDA-MB-231/ATCC (Breast Cancer), 48 h, SRB",28.1 µM
same,TGI,SK-MEL-2,26.9 µM
same,TGI,SK-MEL-28 [2],12.3 µM
same,GI50,"MDA-MB-435; Homo sapiens, MDA-MB-435, 48 h",8.57 µM
same,CC50,"MDA-MB-435; Homo sapiens, MDA-MB-435, 48 h, read-out: LC50",> 50 µM
same,TGI,"MDA-MB-435; MDA-MB-435 (Breast Cancer), 48 h, SRB",47.9 µM
same,GI50,NCI-H460,3.95 µM
same,CC50,NCI-H460; read-out: LC50,> 50 µM
same,GI50,EKVX,2.76 µM
same,CC50,EKVX; read-out: LC50,> 50 µM
same,TGI,HOP-62,33.1 µM
same,TGI,"BT-549; BT-549 (Breast Cancer), 48 h, SRB",4.74 µM
same,GI50,"BT-549; Homo sapiens, BT-549, 48 h",1.47 µM
same,CC50,"BT-549; Homo sapiens, BT-549, 48 h, read-out: LC50",27.2 µM
same,GI50,SN12C,4.11 µM
same,CC50,SN12C; read-out: LC50,> 50 µM
same,GI50,"NCI-322M; Homo sapiens, NCI-322M",6.51 µM
same,CC50,"NCI-322M; Homo sapiens, NCI-322M, read-out: LC50",> 50 µM
same,TGI,"NCI-322M; NCI-322M (Non-Small Cell Lung Cancer), SRB",18.8 µM
same,TGI,A549/ATCC,> 50 µM
same,TGI,NCI-H23,13.4 µM
same,GI50,"UO-31; Homo sapiens, UO-31, 48 h",4.12 µM
same,CC50,"UO-31; Homo sapiens, UO-31, 48 h, read-out: LC50",> 50 µM
same,TGI,"UO-31; UO-31 (Renal Cancer), 48 h, SRB",21.8 µM
same,GI50,HCT-116,2.93 µM
same,CC50,HCT-116; read-out: LC50,33.7 µM
same,TGI,"CCRF-CEM; CCRF-CEM (Leukemia), SRB",21.5 µM
same,GI50,"CCRF-CEM; Homo sapiens, CCRF-CEM",1.97 µM
same,CC50,"CCRF-CEM; Homo sapiens, CCRF-CEM, read-out: LC50",> 50 µM
same,GI50,LOX IMVI,6.6 µM
same,CC50,LOX IMVI; read-out: LC50,36 µM
same,GI50,T-47D,3.21 µM
same,CC50,T-47D; read-out: LC50,> 50 µM
same,GI50,MOLT-4,1.74 µM
same,CC50,MOLT-4; read-out: LC50,> 50 µM
same,GI50,"OVCAR-5; Homo sapiens, OVCAR-5, 48 h",11.1 µM
same,CC50,"OVCAR-5; Homo sapiens, OVCAR-5, 48 h, read-out: LC50",32.4 µM
same,TGI,"OVCAR-5; OVCAR-5 (Ovarian Cancer), 48 h, SRB",19.5 µM

# Source: PMC8161026, “Synthesis and Anticancer Activity Evaluation of 5-[2-Chloro-3-(4-nitrophenyl)-2-propenylidene]-4-thiazolidinones” (Molecules, 2021)
